Results as given in PMC6271425, “Synthesis and Sar Study of Diarylpentanoid Analogues as New Anti-Inflammatory Agents” (Molecules, 2014).
Where two headings read alike, the source gives them in different places.

Tests used:
Format in all cases: cell-based, murine
[1] = system: RAW 264.7 cells; assay: Cell cytotoxicity determination (MTT assay); details: read-out: Cytotoxicity IC50 (µM) ± S.E.M
Procedure: (§1) The synthesized compounds were screened for NO suppression activity in IFN-γ/LPS-stimulated RAW 264.7 macrophages at a 50 µM test concentration. […] The IC50 values of the fifty-seven bioactive compounds were determined and compared to that of the positive control, curcumin. An MTT assay was also carried out to confirm that NO inhibition was not due to cytotoxicity. […] The complete bioassay results of all the compounds are provided as Table S2 in Supplementary Data.
(§2) RAW 264.7 murine macrophages cells obtained from American Type Culture Collection (ATCC, Rockville, MD, USA) were grown in Dulbecco’s Modified Eagle’s Medium (DMEM) containing 10% fetal bovine serum (FBS) and 1% penicillin/streptomycin in a 95% air and 5% CO2 atmosphere at 37 °C.
(§3) Supernatant in each well was removed followed by addition of 100 µL DMEM. Subsequently, 20 µL of 3-(4,5-dimethylthiazol-2-yl)-2,5-diphenyltetrazolium bromide (MTT, 5 mg/mL) was then added and the plate was incubated in a 95% air and 5% CO2 atmosphere at 37 °C for 4 h. The mixture of culture media and MTT in all wells were removed and the purplish formazan crystals formed were dissolved in dimethyl sulfoxide (DMSO) and further incubated for 15 min at room temperature. The color intensity was then measured at 570 nm at room temperature.

[2] = Cell cytotoxicity determination (MTT assay); details: mouse, RAW 264.7 macrophage cells, RAW 264.7 cells, read-out: Cytotoxicity IC50 (µM) ± S.E.M
Procedure: as §1, §2, §3

[3] = system: NO production in IFN-γ/LPS-stimulated RAW 264.7 macrophages; assay: NO suppression (Griess nitrite determination) in IFN-γ/LPS-stimulated RAW 264.7 macrophages; details: for inhibition at 50 µM: RAW264.7, 50 µM test concentration, read-out: NO Inhibition at 50 µM (%) ± S.E.M; for NO Inhibition at 50 µM (%) ± S.E.M: 50 µM test concentration
Procedure: The synthesized compounds were screened for NO suppression activity in IFN-γ/LPS-stimulated RAW 264.7 macrophages at a 50 µM test concentration. […] The IC50 values of the fifty-seven bioactive compounds were determined and compared to that of the positive control, curcumin. An MTT assay was also carried out to confirm that NO inhibition was not due to cytotoxicity. […] The complete bioassay results of all the compounds are provided as Table S2 in Supplementary Data. RAW 264.7 murine macrophages cells obtained from American Type Culture Collection (ATCC, Rockville, MD, USA) were grown in Dulbecco’s Modified Eagle’s Medium (DMEM) containing 10% fetal bovine serum (FBS) and 1% penicillin/streptomycin in a 95% air and 5% CO2 atmosphere at 37 °C. RAW 264.7 cells at 90%–95% confluency were detached and seeded (50,000 cells/well) into a 96-well culture plate with 50 μL of DMEM and incubated for 24 h. The cells were then stimulated in […] of LPS (Escherichia coli, serotype 0111:B4) and 1 ng/ml of interferon-gamma (IFN-γ) in the presence or absence of test compounds for 17 h. Nitrite concentration was then determined by Griess assay by reacting 50 μL of cell culture supernatant with 50 μL of Griess reagent (1% sulfanilamide and 0.1% N-(1-naphthyl)ethylenediamine dihydrochloride in 2.5% phosphoric acid) at room temperature. The optical density was measured at 550 nm after 5 min of incubation at room temperature with a microplate reader.

[4] = Mus musculus, IFN-γ/LPS-stimulated RAW 264.7 cells
[5] = Mus musculus, RAW264.7, IFN-γ/LPS-stimulated RAW 264.7 cells, read-out: NO Inhibition IC50 (µM) ± S.E.M
[6] = Mus musculus, RAW264.7, Table 6, NO suppression IC50 used for QSAR, unit inferred, read-out: IC50
[7] = Mus musculus, RAW264.7, −log IC50 of NO suppression, read-out: pIC50 (converted)
[8] = IFN-γ/LPS-stimulated RAW 264.7 cells
[9] = IFN-γ/LPS-stimulated RAW 264.7 cells, read-out: NO Inhibition IC50 (µM) ± S.E.M

SMILES	IC50 [1] [µM]	IC50 [2] [µM]	inhibition at 50 µM [3, 4] [%]	IC50 [3, 5] [µM]	IC50 [3, 6] [µM]	IC50 [3, 7] [µM]	NO Inhibition at 50 µM (%) ± S.E.M [3, 8] [%]	IC50 [3, 9] [µM]
O=C(/C=C(O)/C=C/c1ccc(Cl)s1)c1ccccc1O [Compound 17]	67.9 ± 2.9	67.8 ± 2.87	63.8 ± 2.6	36.4 ± 1.8	36.4 ± 1.8	36.3		
COc1ccc(C(=O)/C=C(O)/C=C/c2ccccc2OC)c(O)c1 [Compound 48]	88.6 ± 2.5	88.5 ± 2.54	66.3 ± 6.75	39 ± 1.24	39 ± 1.2	38.9	66.3 ± 6.8	
COc1ccc(C(=O)/C=C(O)/C=C/c2cc(OC)c(OC)c(OC)c2)c(O)c1 [Compound 52]		> 100	96.39 ± 0.37	29.3 ± 0.306	29.3 ± 0.3	29.5	96.4 ± 0.4	
COc1ccc(O)c(C(=O)/C=C(O)/C=C/c2ccccc2)c1 [Compound 58]		> 100	92.8 ± 1.8	25.9 ± 0.325	25.9 ± 0.3	25.7	92.8 ± 1.8	
COc1ccc(O)c(C(=O)/C=C(O)/C=C/c2cccc(Cl)c2)c1 [Compound 59]		> 100	89.1 ± 3.56	35.7 ± 0.789	35.7 ± 0.8	35.5	89.1 ± 3.6	
COc1ccc(O)c(C(=O)/C=C(O)/C=C/c2ccccc2OC)c1 [Compound 61]		> 100	65.8 ± 2.37	27.41 ± 0.207	27.4 ± 0.2	27.5	65.8 ± 2.4	
COc1cccc(/C=C/C(O)=C/C(=O)c2cc(OC)ccc2O)c1 [Compound 62]		> 100	92.6 ± 1.18	35.06 ± 0.165	35.1 ± 0.2	34.7	92.6 ± 1.2	
COc1ccc(O)c(C(=O)/C=C(O)/C=C/c2ccc(OC)c(OC)c2)c1 [Compound 63]		> 100	92.19 ± 0.77	19.8 ± 0.365	19.8 ± 0.4	20	92.2 ± 0.8	< 20
COc1ccc(O)c(C(=O)/C=C(O)/C=C/c2cc(OC)c(OC)c(OC)c2)c1 [Compound 64]		> 100	95.2 ± 1.09	18.4 ± 0.246	18.4 ± 0.2	18.2	95.2 ± 1.1	< 20
COc1ccc(O)c(C(=O)/C=C(O)/C=C/c2ccco2)c1 [Compound 67]		> 100	72.1 ± 3.07	71.5 ± 2.5	71.5 ± 2.5	70.8	72.1 ± 3.1	
COc1ccc(/C=C/C(O)=C/C(=O)c2cc(OC)ccc2O)c(OC)c1 [Compound 68]		> 100	79.5 ± 4.71	33.4 ± 0.695	33.4 ± 0.7	33.1	79.5 ± 4.7	
COc1ccc(O)c(C(=O)/C=C(O)/C=C/c2cccs2)c1 [Compound 71]		> 100	85 ± 2.66	35.6 ± 0.621	35.6 ± 0.6	35.5	85.0 ± 2.7	
O=C(/C=C(O)/C=C/c1ccccc1O)c1ccccc1O [Compound 79]	56.4 ± 1.2	72.6 ± 2.61	95.46 ± 0.59	28.9 ± 1.5	28.9 ± 1.5	28.8	95.5 ± 0.6	
O=C(/C=C(O)/C=C/c1cccc(O)c1)c1ccccc1O [Compound 80]	67.3 ± 0.6	85 ± 1.44	97.22 ± 0.69	30.8 ± 0.722	30.8 ± 0.7	30.9	97.2 ± 0.7	
O=C(/C=C(O)/C=C/c1ccc(O)cc1)c1ccccc1O [Compound 81]	> 100	94.13 ± 0.917	91.5 ± 3.86	19.1 ± 0.644	19.1 ± 0.6	19.1	91.5 ± 3.9	< 20
O=C(/C=C(O)/C=C/c1ccccc1O)c1cc(Cl)ccc1O [Compound 84]	53.1 ± 1	40.9 ± 1.63	95.2 ± 0.9	15.9 ± 0.947	15.9 ± 0.9	15.8		< 20
O=C(/C=C(O)/C=C/c1cccc(O)c1)c1cc(Cl)ccc1O [Compound 85]	89.1 ± 1.1	53.1 ± 0.973	95.86 ± 0.45	26.9 ± 0.796	26.9 ± 0.8	26.9	95.9 ± 0.5	
O=C(/C=C(O)/C=C/c1ccc(O)cc1)c1cc(Cl)ccc1O [Compound 86]	66 ± 1.2	89.1 ± 1.08	90.3 ± 2.66	18.7 ± 0.786	18.7 ± 0.8	18.6	90.3 ± 2.7	< 20
O=C(/C=C(O)/C=C/c1cc(O)ccc1O)c1cc(Cl)ccc1O [Compound 87]	49.5 ± 1.7	66 ± 1.21	96.5 ± 1.42	32.3 ± 0.865	32.3 ± 0.9	32.4	96.5 ± 1.4	
O=C(/C=C(O)/C=C/c1ccccc1O)c1cc(O)ccc1O [Compound 89]	72.6 ± 2.6	67.3 ± 0.552	83.6 ± 2	31 ± 2		30.9	83.6 ± 2.0	
O=C(/C=C(O)/C=C/c1cccc(O)c1)c1cc(O)ccc1O [Compound 90]	85 ± 1.4	> 100	90.9 ± 2.02			35.5	90.9 ± 2.0	
O=C(/C=C(O)/C=C/c1ccco1)c1cc(O)ccc1O [Compound 91]	94.1 ± 0.9	> 100	83.6 ± 2.84	75 ± 4.9	75 ± 4.9	74.1	83.6 ± 2.8	
O=C(/C=C(O)/C=C/c1ccccc1)c1ccc(O)cc1O [Compound 93]	59.5 ± 0.5	59.46 ± 0.511	94.7 ± 2.28	29.9 ± 0.444	29.9 ± 0.4	30.2	94.7 ± 2.3	
O=C(/C=C(O)/C=C/c1cccc(O)c1)c1ccc(O)cc1O [Compound 94]	70.1 ± 1.8	70.1 ± 1.8	95.4 ± 1.45	24.8 ± 0.4	24.8 ± 0.4	24.5	95.4 ± 1.5	
O=C(/C=C(O)/C=C/c1cccs1)c1ccc(O)cc1O [Compound 95]		> 100	60.4 ± 2.04	44.8 ± 1.57	44.8 ± 1.6	44.7	60.4 ± 2.0	
